The values that follow come from patent US9873704B2, “Heterocyclic compounds and their uses” (Amgen Inc., priority 2009, dated 2018).

The term Ki denotes the equilibrium dissociation constant of an inhibitor or competing ligand from its target. A low value points to higher affinity.

This assay deals with T1, PI3Kδ (Homo sapiens, UniProt O00329).
T1 construct: Full length p110 subunits of PI3k α, β and δ, N-terminally labeled with polyHis tag; polyHis (N); made in house; host or cells: Sf9 insect cells (baculovirus)
As to the kind of experiment: PI3Kδ Alphascreen assay. It counts as biochemical. As to the method:
Full length p110 subunits of PI3k α, β and δ, N-terminally labeled with polyHis tag, were coexpressed with p85 with Baculo virus expression vectors in sf9 insect cells. P110/p85 heterodimers were purified by sequential Ni-NTA, Q-HP, Superdex-100 chromatography. Purified α, β and δ isozymes were stored at −20° C. in 20 mM Tris, pH 8, 0.2M NaCl, 50% glycerol, 5 mM DTT, 2 mM Na cholate. […] The γ isozyme was purified by sequential Ni-NTA, Superdex-200, Q-HP chromatography. The γ isozyme was stored frozen at −80° C. in NaH2PO4, pH 8, 0.2M NaCl, 1% ethylene glycol, 2 mM β-mercaptoethanol.
A PI3K Alphascreen® assay (PerkinElmer, Waltham, Mass.) was used to measure the activity of a panel of four phosphoinositide 3-kinases: PI3Kα, PI3Kβ, PI3Kγ, and PI3Kδ. Enzyme reaction buffer was prepared using sterile water (Baxter, Deerfield, Ill.) and 50 mM Tris HCl pH 7, 14 mM MgCl2, 2 mM sodium cholate, and 100 mM NaCl. 2 mM DTT was added fresh the day of the experiment. The Alphascreen buffer was made using sterile water and 10 mM Tris HCl pH 7.5, 150 mM NaCl, 0.10% Tween 20, and 30 mM EDTA. 1 mM DTT was added fresh the day of the experiment. Compound source plates used for this assay were 384-well Greiner clear polypropylene plates containing test compounds at 5 mM and diluted 1:2 over 22 concentrations. Columns 23 and 24 contained only DMSO as these wells comprised the positive and negative controls, respectively. Source plates were replicated by transferring 0.5 uL per well into 384-well Optiplates (PerkinElmer, Waltham, Mass.).
Each PI3K isoform was diluted in enzyme reaction buffer to 2× working stocks. […] PI(4,5)P2 (Echelon Biosciences, Salt Lake City, Utah) was diluted to 10 μM and ATP was diluted to 20 μM. This 2× stock was used in the assays for PI3Kα and PI3Kβ. For assay of PI3Kγ and PI3Kδ, PI(4,5)P2 was diluted to 10 μM and ATP was diluted to 8 μM to prepare a similar 2× working stock. Alphascreen reaction solutions were made using beads from the anti-GST Alphascreen kit (PerkinElmer, Waltham, Mass.). Two 4× working stocks of the Alphascreen reagents were made in Alphascreen reaction buffer. In one stock, biotinylated-IP4 (Echelon Biosciences, Salt Lake City, Utah) was diluted to 40 nM and streptavidin-donor beads were diluted to 80 μg/mL. In the second stock, PIP3-binding protein (Echelon Biosciences, Salt Lake City, Utah) was diluted to 40 nM and anti-GST-acceptor beads were diluted to 80 μg/mL.
10 μL/well of the appropriate substrate 2× stock (containing 20 μM ATP for the PI3Kα and β assays and containing 8 μM ATP for the PI3Kγ and δ assays) was then added to Columns 1-24 of all plates. Plates were then incubated at room temperature for 20 minutes. In the dark, 10 μL/well of the donor bead solution was added to columns 1-24 of the plates to quench the enzyme reaction. The plates were incubated at room temperature for 30 minutes. Still in the dark, 10 μL/well of the acceptor bead solution was added to columns 1-24 of the plates. The plates were then incubated in the dark for 1.5 hours. The plates were read on an Envision multimode Plate Reader (PerkinElmer, Waltham, Mass.) using a 680 nm excitation filter and a 520-620 nm emission filter.

SMILES strings stand for the structures.

T1 sequence (O00329 whole entry): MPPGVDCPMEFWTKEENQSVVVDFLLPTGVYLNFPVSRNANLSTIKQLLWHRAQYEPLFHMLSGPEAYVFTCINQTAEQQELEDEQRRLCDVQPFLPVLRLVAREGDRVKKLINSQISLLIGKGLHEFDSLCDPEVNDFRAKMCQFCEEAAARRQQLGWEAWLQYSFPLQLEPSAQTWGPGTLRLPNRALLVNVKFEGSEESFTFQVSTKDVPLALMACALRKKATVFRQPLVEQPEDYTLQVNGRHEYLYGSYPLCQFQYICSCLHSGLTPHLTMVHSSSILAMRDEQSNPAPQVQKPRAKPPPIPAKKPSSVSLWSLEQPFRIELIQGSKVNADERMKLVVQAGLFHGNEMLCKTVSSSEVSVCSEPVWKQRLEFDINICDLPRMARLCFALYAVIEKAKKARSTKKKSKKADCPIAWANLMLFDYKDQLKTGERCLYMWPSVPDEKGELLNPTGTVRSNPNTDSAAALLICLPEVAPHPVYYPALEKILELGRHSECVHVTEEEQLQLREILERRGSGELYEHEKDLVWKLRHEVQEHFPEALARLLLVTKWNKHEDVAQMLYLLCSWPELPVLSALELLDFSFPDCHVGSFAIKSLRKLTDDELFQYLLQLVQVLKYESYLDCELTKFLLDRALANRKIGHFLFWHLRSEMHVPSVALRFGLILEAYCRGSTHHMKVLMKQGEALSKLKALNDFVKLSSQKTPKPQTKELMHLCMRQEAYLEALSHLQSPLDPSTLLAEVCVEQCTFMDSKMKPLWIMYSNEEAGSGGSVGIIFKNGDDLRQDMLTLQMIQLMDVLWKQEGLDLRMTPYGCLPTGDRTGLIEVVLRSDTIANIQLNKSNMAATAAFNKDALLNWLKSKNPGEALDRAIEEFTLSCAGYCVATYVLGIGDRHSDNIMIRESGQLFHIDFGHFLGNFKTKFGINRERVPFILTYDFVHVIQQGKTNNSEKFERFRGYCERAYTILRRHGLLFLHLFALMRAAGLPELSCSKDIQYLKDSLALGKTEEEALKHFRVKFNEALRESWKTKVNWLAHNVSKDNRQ
T1 sequence (P27986 whole entry partner): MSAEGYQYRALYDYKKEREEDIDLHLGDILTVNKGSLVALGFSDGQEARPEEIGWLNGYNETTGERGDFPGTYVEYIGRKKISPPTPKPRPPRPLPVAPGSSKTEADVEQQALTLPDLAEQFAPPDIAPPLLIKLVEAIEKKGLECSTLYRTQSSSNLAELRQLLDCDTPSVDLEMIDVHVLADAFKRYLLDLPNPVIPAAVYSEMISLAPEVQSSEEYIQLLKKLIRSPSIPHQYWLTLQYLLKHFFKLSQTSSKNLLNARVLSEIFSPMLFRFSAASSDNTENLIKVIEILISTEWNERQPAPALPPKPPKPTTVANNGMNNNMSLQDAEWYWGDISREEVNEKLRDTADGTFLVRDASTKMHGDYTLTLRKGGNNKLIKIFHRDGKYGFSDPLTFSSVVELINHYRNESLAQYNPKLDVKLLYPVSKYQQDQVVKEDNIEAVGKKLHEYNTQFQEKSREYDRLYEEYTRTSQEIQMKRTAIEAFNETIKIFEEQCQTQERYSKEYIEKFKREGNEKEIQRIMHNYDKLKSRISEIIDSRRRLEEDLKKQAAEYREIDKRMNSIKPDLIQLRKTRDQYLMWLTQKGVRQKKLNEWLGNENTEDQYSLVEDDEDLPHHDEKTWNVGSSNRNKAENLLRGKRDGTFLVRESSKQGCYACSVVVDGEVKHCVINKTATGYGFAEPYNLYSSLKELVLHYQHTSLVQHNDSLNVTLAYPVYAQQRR

The compound `CS(=O)(=O)c1ccccc1-c1cc2c(F)cccc2nc1CNc1ncnc(N)c1C#N` [4-Amino-6-((5-fluoro-3-(2-(methylsulfonyl)phenyl)quinolin-2-yl)methylamino)pyrimidine-5-carbonitrile] came in with a Ki of 39 nM.

In turn, `N#Cc1c(N)ncnc1NCc1nc2cccc(F)c2cc1-c1cccc(F)c1` [4-Amino-6-((5-fluoro-3-(3-fluorophenyl)quinolin-2-yl)methylamino)pyrimidine-5-carbonitrile] gave a Ki of 102 nM.

For `N#Cc1c(N)ncnc1NCc1nc2cccc(F)c2cc1-c1ccccn1` [4-Amino-6-((5-fluoro-3-(pyridin-2-yl)quinolin-2-yl)methylamino)pyrimidine-5-carbonitrile], affinity was put at a Ki of 137 nM. This Ki and that of the compound before are within 1.5-fold of each other. Compound `N#Cc1c(N)ncnc1NCc1nc2cccc(F)c2cc1-c1ccccc1` [4-Amino-6-((5-fluoro-3-phenylquinolin-2-yl)methylamino)pyrimidine-5-carbonitrile] gave an inhibitory constant (Ki) of 107 nM.

Turning to `CS(=O)(=O)c1ccccc1-c1cc2cccc(F)c2nc1CNc1ncnc(N)c1C#N` [4-Amino-6-((8-fluoro-3-(2-(methylsulfonyl)phenyl)quinolin-2-yl)methylamino)-pyrimidine-5-carbonitrile], the inhibitory constant (Ki) stood at 30.7 nM. Next, `N#Cc1c(N)ncnc1NCc1nc2c(F)cccc2cc1-c1ccccn1` [4-Amino-6-((8-fluoro-3-(pyridin-2-yl)quinolin-2-yl)methyl-amino)pyrimidine-5-carbonitrile]: 262 nM.

As to `N#Cc1c(N)ncnc1NCc1nc2c(F)cccc2cc1-c1ccccc1` [4-Amino-6-((8-fluoro-3-phenylquinolin-2-yl)methylamino)pyrimidine-5-carbonitrile], the inhibition constant Ki was 12.3 nM. Next, `COCCNc1c(-c2ccccc2)c([C@@H](C)Nc2ncnc(N)c2C#N)nc2ccc(F)cc12` [4-Amino-6-(((1R)-1-(6-fluoro-4-((2-methoxyethyl)amino)-3-phenyl-2-quinolinyl)ethyl)amino)-5-pyrimidinecarbonitrile]: 62.2 nM. Regarding `C[C@H](Nc1ncnc(N)c1C#N)c1nc2cccc(Cl)c2cc1-c1ccccn1` [4-Amino-6-(((1S)-1-(5-chloro-3-(2-pyridinyl)-2-quinolinyl)ethyl)amino)-5-pyrimidinecarbonitrile], the affinity, expressed as Ki, was 0.4 nM.

As to `C[C@H](Nc1ncnc(N)c1C#N)c1nc2ccc(F)cc2c(NCCS(C)(=O)=O)c1-c1ccccc1` [4-Amino-6-(((1S)-1-(6-fluoro-4-((2-(methylsulfonyl)ethyl)amino)-3-phenyl-2-quinolinyl)ethyl)amino)-5-pyrimidinecarbonitrile], affinity was put at a Ki of 0.226 nM. Compared with the last compound, the Ki is about 1.8-fold lower.

`COCCNc1c(-c2ccccc2)c([C@H](C)Nc2ncnc(N)c2C#N)nc2ccc(F)cc12` [4-Amino-6-(((1S)-1-(6-fluoro-4-((2-methoxyethyl)amino)-3-phenyl-2-quinolinyl)ethyl)amino)-5-pyrimidinecarbonitrile]: the Ki is 0.61 nM. Take `CC(Nc1ncnc(N)c1C#N)c1nc2ccc(F)cc2c(C(=O)N2CCOCC2)c1-c1ccccc1` (stereo not shown) [4-Amino-6-((-1-(6-fluoro-4-(4-morpholinylcarbonyl)-3-phenyl-2-quinolinyl)-ethyl)amino)-5-pyrimidinecarbonitrile]: the Ki was found to be 2.88 nM. Next, `CC(Nc1ncnc(N)c1C#N)c1nc2ccc(F)cc2c(C(=O)N2CC[C@H](O)C2)c1-c1ccccc1` (stereo partly drawn) [4-Amino-6-((-1-(6-fluoro-4-(((3S)-3-hydroxy-1-pyrrolidinyl)carbonyl)-3-phenyl-2-quinolinyl)ethyl)amino)-5-pyrimidinecarbonitrile]: 1.02 nM. The result for `C[C@H](c1nc2ccc(F)cc2cc1-c1cncc(F)c1)n1nc(C#N)c2c(N)ncnc21` [4-amino-1-((R)-1-(6-fluoro-3-(5-fluoropyridin-3-yl)quinolin-2-yl)ethyl)-1H-pyrazolo[3,4-d]pyrimidine-3-carbonitrile] reads 5470 nM; that for `CC(Nc1ncnc(N)c1C#N)c1nc2ccc(F)cc2c(N(C)C)c1-c1ccccn1` (stereo not shown) [4-amino-6-(1-(4-(dimethylamino)-6-fluoro-3-(pyridin-2-yl)quinolin-2-yl)ethylamino)pyrimidine-5-carbonitrile], 1.4 nM; that for `CC(Nc1ncnc(N)c1C#N)c1nc2ccc(F)cc2c([S@@+]([O-])CCO)c1-c1ccccc1` (stereo partly drawn) [4-amino-6-(1-(6-fluoro-4-((S)-2-hydroxyethylsulfinyl)-3-phenylquinolin-2-yl)ethylamino)pyrimidine-5-carbonitrile], 1.8 nM.

As for `CC(Nc1ncnc(N)c1C#N)c1nc2ccc(F)cc2c(CO)c1-c1ccccc1` (stereo not shown) [4-amino-6-(1-(6-fluoro-4-(hydroxymethyl)-3-phenylquinolin-2-yl)ethylamino)pyrimidine-5-carbonitrile], the inhibition constant (Ki) was found to be 1.68 nM.

For the compound `CC(Nc1ncnc(N)c1C#N)c1nc2ccc(F)cc2c(S(C)(=O)=O)c1-c1ccccc1` (stereo not shown) [4-amino-6-(1-(6-fluoro-4-(methylsulfonyl)-3-phenylquinolin-2-yl)ethylamino)pyrimidine-5-carbonitrile], the inhibition constant Ki was determined as 1.3 nM. The result for `CC(Nc1ncnc(N)c1C#N)c1nc2ccc(F)cc2c(N2CCOCC2)c1-c1ccccn1` (stereo not shown) [4-amino-6-(1-(6-fluoro-4-morpholino-3-(pyridin-2-yl)quinolin-2-yl)ethyl-amino)pyrimidine-5-carbonitrile] reads 1.19 nM.

In the case of `CSc1c(-c2ccccc2)c(C(C)Nc2ncnc(N)c2C#N)nc2ccc(F)cc12` (stereo not shown) [4-amino-6-((1-(6-fluoro-4-(methylsulfanyl)-3-phenyl-2-quinolinyl)ethyl)amino)-5-pyrimidinecarbonitrile], the Ki was 2.4 nM.

Compound `C[C@@H](Nc1ncnc(N)c1C#N)c1nc2cccc(Cl)c2cc1-c1ccccn1` [4-amino-6-(((1R)-1-(5-chloro-3-(2-pyridinyl)-2-quinolinyl)ethyl)amino)-5-pyrimidinecarbonitrile] registered a Ki of 57.9 nM.

In turn, `C[C@@H](Nc1ncnc(N)c1C#N)c1nc2cccc(F)c2c(S(C)(=O)=O)c1-c1ccccc1` [4-amino-6-(((1R)-1-(5-fluoro-4-(methylsulfonyl)-3-phenyl-2-quinolinyl)ethyl)amino)-5-pyrimidinecarbonitrile] showed a Ki of 466 nM.

`C[C@H](Nc1ncnc(N)c1C#N)c1nc2ccc(F)cc2c(C(=O)N2CCOCC2)c1-c1ccccc1` [4-amino-6-(((1S)-1-(6-fluoro-4-(4-morpholinylcarbonyl)-3-phenyl-2-quinolinyl)ethyl)amino)-5-pyrimidinecarbonitrile] returned a Ki of 0.505 nM. Consider `C[C@H](Nc1ncnc(N)c1C#N)c1nc2ccc(F)cc2c(C(=O)N2CC[C@H](O)C2)c1-c1ccccc1` [4-amino-6-(((1S)-1-(6-fluoro-4-(((3S)-3-hydroxy-1-pyrrolidinyl)carbonyl)-3-phenyl-2-quinolinyl)ethyl)amino)-5-pyrimidinecarbonitrile], for which the Ki was determined as 0.657 nM. Next, `C[C@H](Nc1ncnc(N)c1C#N)c1nc2ccc(F)cc2c(S(C)(=O)=O)c1-c1ccccc1` [4-amino-6-(((1S)-1-(6-fluoro-4-(methylsulfonyl)-3-phenyl-2-quinolinyl)ethyl)amino)-5-pyrimidinecarbonitrile]: 0.741 nM.

In the case of `CC(Nc1ncnc(N)c1C#N)c1nc2cccc(Cl)c2cc1-c1ccccn1` [4-amino-6-(((1S, 1R)-1-(5-chloro-3-(2-pyridinyl)-2-quinolinyl)ethyl)-amino)-5-pyrimidinecarbonitrile], the inhibitory constant (Ki) stood at 1.6 nM. Next, `CC(Nc1ncnc(N)c1C#N)c1nc2ccc(F)cc2c(CN2CCOCC2)c1-c1ccccc1` (stereo not shown) [4-amino-6-((-1-(6-fluoro-4-(4-morpholinylmethyl)-3-phenyl-2-quinolinyl)ethyl)amino)-5-pyrimidinecarbonitrile]: 1.31 nM; `C[C@H](c1nc2ccc(F)cc2cc1-c1ccccn1)n1nc(C#N)c2c(N)ncnc21` [(R)-4-amino-1-(1-(6-fluoro-3-(pyridin-2-yl)quinolin-2-yl)ethyl)-1H-pyrazolo[3,4-d]pyrimidine-3-carbonitrile]: 320 nM.
